Test results reported in patent US9951001B2 (Acorda Therapeutics, Inc., priority 2008, dated 2018).
In brackets after ≈: the same amount, converted by molar mass. Counter-ions that a name gives are not always drawn. Like-named read-outs stand apart in the source and are kept apart here.

Experiments:
physchem = conditions: for solubility: water, Solubility in water at room temperature
Method: To a stirred colorless solution of (S)-4-acetamidophenyl 2-(tert-butoxycarbonylamino)-4-(methylthio)butanoate (0.5 g, 1.3 mmol) in dioxane (10 mL) was added 40 mL of HCl in dioxane (4M).

C57BL6 mice = assay: Acute acetaminophen-induced hepatotoxicity in mice (plasma ALT and AST)
Method: Hepatotoxicity was evaluated by measuring standard plasma enzymatic markers (Alanine transaminase (ALT) and Aspartate transaminase (AST)) of liver damage.

[1] = cited from earlier work

SMILES	melting point	solubility (physchem)	further results
CC(=O)Nc1ccc(OC(=O)C(N)CSSCC(N)C(=O)O)cc1.Cl.Cl (centres unmarked)	230 to 237 °C	–	–
CSCC[C@H](N)C(=O)Oc1ccc(NC(C)=O)cc1 (as salt: HCl) [Compound (II-A), (S)-4-acetamidophenyl 2-amino-4-(methylthio)butanoate]	225 to 228 °C	–	–
CC(=O)Nc1ccc(OC(=O)C(N)CSSCC(N)C(=O)Oc2ccc(NC(C)=O)cc2)cc1 (centres unmarked) (as salt: trifluoroacetate) [Example 4, bis(4-acetamidophenyl)3,3′-disulfanediylbis(2-aminopropanoate)di(trifluoroacetate)]	> 300 °C	–	–
CC(=O)Nc1ccc(O)cc1 [Acetaminophen, N-(4-hydroxyphenyl)acetamide]	–	~14.3 mg/mL (≈ 94.6 mM)	Treated mice with elevated ALT levels (C57BL6 mice; mouse, in vivo): 83%; Treated mice with increased AST levels (C57BL6 mice; mouse, in vivo): all
CSCC[C@H](N)C(=O)Oc1ccc(NC(C)=O)cc1 [Compound (II-A), (S)-4-acetamidophenyl 2-amino-4-(methylthio)butanoate]	–	500 mg/mL (≈ 1770 mM)	–
CC(=O)Nc1ccc(OC(=O)C(N)CSSCC(NC(C)=O)C(=O)O)cc1 (centres unmarked) [Compound II-D sodium salt, 2-acetamido-3-((3-(4-acetamidophenoxy)-2-amino-3-oxopropyl)disulfanyl)propanoic acid]	–	–	Solubility in water at room temperature (physchem): 52 mg/mL
CC(=O)Nc1ccc(OC(=O)C(CSSCC(NC(C)=O)C(=O)O)NC(C)=O)cc1 (centres unmarked) [Example 2, 2-acetamido-3-((2-acetamido-3-(4-acetamidophenoxy)-3-oxopropyl)disulfanyl)propanoic acid]	95 to 99 °C	–	–
CC(=O)Nc1ccc(OC(=O)C(N)CSSCC(NC(C)=O)C(=O)O)cc1 (centres unmarked) [II-D, 2-acetamido-3-((3-(4-acetamidophenoxy)-2-amino-3-oxopropyl)disulfanyl)propanoic acid]	–	47 mg/mL (≈ 113 mM)	–
O=C1N[C@H](C(=O)O)CS1 [L-2-oxothiazolidine-4-carboxylate]	–	–	GSH tissue levels ([1]; administered 30 minutes post-acetaminophen administration): 6.1 μmol/g of tissue; GSH tissue levels ([1]; administered 120 minutes post-acetaminophen administration): 5.3 μmol/g of tissue
CSCC[C@H](N)C(=O)O [l-methionine]	–	–	AST and ALT increases in acetaminophen-treated animals (C57BL6 mice; co-administration of equimolar doses of l-methionine and acetaminophen): significantly reduced; Serum AST and ALT levels (C57BL6 mice; oral l-methionine alone (167 mg/kg)): did not affect
